Results taken from article PMC8070004, “Isorhamnetin Ameliorates Dry Eye Disease via CFTR Activation in Mice” (International Journal of Molecular Sciences, 2021).

Key:
[1] = test system: scopolamine-induced dry eye mice; assay: Scopolamine-induced dry eye mouse model (corneal fluorescein staining, tear volume); assay type: in vivo; details: 30 µM, three times a day for 10 days
Procedure: Tear volume was measured using phenol red threads (Zone-Quick, Oasis Medical, Glendora, CA, USA) by placing them in the lateral canthi of normal CD-1 or dry eye model-treated BL6 mice for 10 s using forceps. Tear volume was measured using a Vernier caliper as the length of thread wetting under a microscope. For normal CD-1 mice, serial measurements were done to evaluate compound pharmacodynamics compared to the vehicle after topical application of a single, 2.5-μL drop of compound formulations containing 20 μM forskolin, 30 μM isorhamnetin, or 20 μM CFTRinh-172 in PBS with 0.1% DMSO.
To assess corneal epithelial disruption, 5 μL of fluorescein dye (1%) were applied to the ocular surface of mice. Photographs of the eye were taken with a digital camera. Each cornea was scored from 0 to 5 according to the Oxford scheme.
Eight-week-old C57BL/6 mice were used for this experiment. Experimental dry eye was induced by subcutaneous injection of 0.5 mg/100 μL scopolamine hydrobromide (Sigma-Aldrich, St. Louis, MO, USA) three times a day with a standard desiccating environment created by placing the mice in a chamber with a continuous air flow (15 L/min) in a room at 25 °C with an ambient humidity of 12%. […]

[2] = target: WT-CFTR (Homo sapiens, UniProt P13569); assay: Apical membrane current in WT-CFTR expressing FRT cells; assay type: cell-based; parameters: expressed in transfected cells; host or cells: FRT (Fisher rat thyroid) cells, provided by Dr. Alan Verkman
Procedure: Snapwell inserts containing CFTR-expressing FRT and T84 cells were mounted in Ussing chambers (Physiologic Instruments, San Diego, CA, USA). Forskolin, isorhamnetin, and CFTRinh-172 were added to the apical and basolateral bath solution. For FRT cells, the apical bath was filled with a half-Cl^− solution and the basolateral bath was filled with HCO^3--buffered solution to generate transepithelial Cl^− gradient (apical, 64 mM; basolateral, 129 mM), and the basolateral membrane was permeabilized with 250 µg/mL amphotericin B. For T84 cells, symmetrical HCO^3--buffered solutions were used, and ENaC was inhibited with amiloride (100 µM). All cells were bathed for a 20-min stabilization period and aerated with 95% O2/5% CO2 at 37 °C. Apical membrane current and short-circuit current were measured with an EVC4000 Multi-Channel V/I Clamp (World Precision Instruments, Sarasota, FL, USA) and recorded using PowerLab 4/35 (AD Instruments, Castle Hill, Australia). Data were collected and analyzed with ADInstruments acquisition software Labchart Pro 7 software. The sampling rate was 4 Hz.

[3] = target: T1, CFTR (Mus musculus, UniProt P26361); assay: Open-circuit ocular surface potential difference (PD) in CD-1 mice; assay type: in vivo; details: 30 μM isorhamnetin, amiloride and low Cl- perfusion
T1 construct: from tissue; host or cells: ocular surface of anesthetized CD-1 mice (in vivo)
T1 sequence (P26361 whole entry, the tested form may be a part): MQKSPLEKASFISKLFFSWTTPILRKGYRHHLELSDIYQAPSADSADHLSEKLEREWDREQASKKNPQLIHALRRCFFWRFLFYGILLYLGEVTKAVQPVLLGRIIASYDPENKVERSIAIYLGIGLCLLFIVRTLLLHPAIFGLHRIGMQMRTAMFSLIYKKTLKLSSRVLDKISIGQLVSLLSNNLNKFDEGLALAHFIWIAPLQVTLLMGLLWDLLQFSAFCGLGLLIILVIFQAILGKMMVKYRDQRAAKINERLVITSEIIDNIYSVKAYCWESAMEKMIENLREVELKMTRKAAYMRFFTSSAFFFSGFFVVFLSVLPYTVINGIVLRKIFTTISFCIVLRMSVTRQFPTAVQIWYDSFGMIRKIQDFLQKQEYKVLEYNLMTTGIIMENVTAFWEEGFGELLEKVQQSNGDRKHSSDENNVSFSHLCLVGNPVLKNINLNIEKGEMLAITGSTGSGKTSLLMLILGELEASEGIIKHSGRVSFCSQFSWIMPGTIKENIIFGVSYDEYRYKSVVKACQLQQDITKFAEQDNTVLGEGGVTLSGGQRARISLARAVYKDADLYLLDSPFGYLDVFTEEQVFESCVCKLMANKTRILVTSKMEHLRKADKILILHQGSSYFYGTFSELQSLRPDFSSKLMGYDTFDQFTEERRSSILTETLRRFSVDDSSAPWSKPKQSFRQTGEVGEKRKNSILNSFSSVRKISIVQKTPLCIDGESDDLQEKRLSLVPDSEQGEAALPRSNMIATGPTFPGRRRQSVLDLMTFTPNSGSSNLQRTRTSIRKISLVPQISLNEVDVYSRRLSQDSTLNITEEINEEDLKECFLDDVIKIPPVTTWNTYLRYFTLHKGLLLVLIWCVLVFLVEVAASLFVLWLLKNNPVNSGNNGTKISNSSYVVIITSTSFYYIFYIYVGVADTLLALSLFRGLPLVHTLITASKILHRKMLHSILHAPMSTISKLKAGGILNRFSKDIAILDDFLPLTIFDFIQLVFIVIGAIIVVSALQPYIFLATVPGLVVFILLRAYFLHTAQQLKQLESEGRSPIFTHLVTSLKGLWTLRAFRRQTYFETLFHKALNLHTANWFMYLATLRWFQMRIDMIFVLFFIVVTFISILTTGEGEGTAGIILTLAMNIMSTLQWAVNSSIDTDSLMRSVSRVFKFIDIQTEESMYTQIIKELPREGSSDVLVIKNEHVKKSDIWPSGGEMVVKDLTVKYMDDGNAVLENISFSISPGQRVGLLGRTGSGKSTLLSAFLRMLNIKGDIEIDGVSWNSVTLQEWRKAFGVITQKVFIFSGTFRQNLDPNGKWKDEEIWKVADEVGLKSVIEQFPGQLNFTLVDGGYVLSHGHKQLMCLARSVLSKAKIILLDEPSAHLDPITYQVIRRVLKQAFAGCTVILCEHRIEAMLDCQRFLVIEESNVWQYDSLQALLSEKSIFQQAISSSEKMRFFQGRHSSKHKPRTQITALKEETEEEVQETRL

Sequence of WT-CFTR (P13569 whole entry): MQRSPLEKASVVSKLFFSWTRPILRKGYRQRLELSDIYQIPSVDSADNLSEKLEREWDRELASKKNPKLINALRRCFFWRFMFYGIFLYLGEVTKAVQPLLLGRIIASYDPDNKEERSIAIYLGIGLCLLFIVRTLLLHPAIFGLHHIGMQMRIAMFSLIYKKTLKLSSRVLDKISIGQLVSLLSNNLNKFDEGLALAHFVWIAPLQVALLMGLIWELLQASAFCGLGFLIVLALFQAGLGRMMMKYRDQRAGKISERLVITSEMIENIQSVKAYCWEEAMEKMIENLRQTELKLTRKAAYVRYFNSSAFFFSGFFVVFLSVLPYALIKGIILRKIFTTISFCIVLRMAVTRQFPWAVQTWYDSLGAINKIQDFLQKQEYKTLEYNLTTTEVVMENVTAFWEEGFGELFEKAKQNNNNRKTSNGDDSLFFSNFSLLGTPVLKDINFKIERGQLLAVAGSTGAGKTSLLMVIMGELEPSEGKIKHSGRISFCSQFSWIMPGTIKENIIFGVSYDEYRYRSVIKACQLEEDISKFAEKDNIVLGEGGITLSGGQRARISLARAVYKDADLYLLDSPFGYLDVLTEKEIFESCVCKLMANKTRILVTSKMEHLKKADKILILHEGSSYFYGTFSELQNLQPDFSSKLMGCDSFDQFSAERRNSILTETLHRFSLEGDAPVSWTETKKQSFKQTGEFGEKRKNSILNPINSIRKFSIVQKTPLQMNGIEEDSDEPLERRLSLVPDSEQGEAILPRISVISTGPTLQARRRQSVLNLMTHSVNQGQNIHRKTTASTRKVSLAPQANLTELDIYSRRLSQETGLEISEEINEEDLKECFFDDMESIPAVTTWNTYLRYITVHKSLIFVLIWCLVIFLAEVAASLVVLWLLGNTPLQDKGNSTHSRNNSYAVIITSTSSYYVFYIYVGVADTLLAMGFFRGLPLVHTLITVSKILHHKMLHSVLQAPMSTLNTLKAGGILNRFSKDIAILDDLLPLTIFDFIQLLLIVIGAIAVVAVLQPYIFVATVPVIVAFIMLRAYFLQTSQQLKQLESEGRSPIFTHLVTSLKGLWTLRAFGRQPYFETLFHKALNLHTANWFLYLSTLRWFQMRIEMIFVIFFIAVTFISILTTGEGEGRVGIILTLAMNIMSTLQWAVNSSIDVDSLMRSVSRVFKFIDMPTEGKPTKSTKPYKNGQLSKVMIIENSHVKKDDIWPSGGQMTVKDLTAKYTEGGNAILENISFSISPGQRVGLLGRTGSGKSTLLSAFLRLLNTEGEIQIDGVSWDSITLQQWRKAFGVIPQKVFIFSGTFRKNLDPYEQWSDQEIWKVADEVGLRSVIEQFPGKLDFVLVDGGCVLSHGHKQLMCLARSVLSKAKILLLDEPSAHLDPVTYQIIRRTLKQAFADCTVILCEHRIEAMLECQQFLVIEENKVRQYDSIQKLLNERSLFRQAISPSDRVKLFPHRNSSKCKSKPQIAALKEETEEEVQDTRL

SMILES: COc1cc(-c2oc3cc(O)cc(O)c3c(=O)c2O)ccc1O [isorhamnetin]
- corneal erosion (fluorescein staining) [1]: significantly reduced
- tear volume in dry eye mice [1]: increased
- EC50 [2]: 6.6 ± 1.1 µM
- CFTR activation (apical membrane current) ([2]; 30 μM, current not further increased by 20 μM forskolin): fully activated
- ocular surface PD [3]: significantly hyperpolarized
